Test results from paper PMC7648750, “In vitro and in vivo BNCT investigations using a carborane containing sulfonamide targeting CAIX epitopes on malignant pleural mesothelioma and breast cancer cells” (Scientific Reports, 2020).

Tests used:
MCF7 cells [1] = experiment: MTT cell vitality assay; type: cell-based, human; settings: normoxia
Procedure: (§1) The MTT assay is based on the reduction in the mitochondria of metabolically active cells by succinate dehydrogenase obtaining a precipitation of purple formazan crystal. The assay was carried out using the same protocol reported by Azzi et al[42]. Briefly, AB22, ZL34 and MCF7 cells were seeded at a density of 7 × 10^3, 5 × 10^3 and 1 × 10^4 cells per well, respectively, in a 96-well microtiter plate. After 24 h at 37 °C and 5% CO2, they were incubated with increasing concentration of CA-SF or AZ for 24 h in a condition of normoxia at 37 °C and 5% CO2 by adding stock solutions in dimethyl sulfoxide (DMSO). In all the conditions the concentration of DMSO during the cell incubation was maintained under 0.25% (v/v) in cell medium. After the incubation, the medium was removed and each well was incubated with thiazolyl blue tetrazolium bromide (Sigma) dissolved in the medium at a concentration of 0.45 mg/mL for 4 h at 37 °C and 5% CO2. Then, after medium elimination, 150 µL of DMSO were added into each well to solubilise the formazan salt crystals produced by the metabolism of live cells and the microplate was incubated at room temperature (RT) for 30 min. Finally, absorbance was measured at 570 nm using an iMark microplate reader (Biorad). Cell vitality was reported as the percentage of […] cells observed in the treated samples relative to that observed in the non-treated control cells.

ZL34 cells [2] = experiment: MTT cell vitality assay; type: cell-based, human; settings: normoxia
Procedure: as §1

AB22 cells [3] = experiment: MTT cell vitality assay; type: cell-based, mouse; settings: normoxia
Procedure: as §1

AB22 cells [4] = experiment: Cell uptake of boron (ICP-MS); type: cell-based, mouse; settings: AB22, 130 µM CA-SF in culture medium, 24 h, 37 °C
Procedure: For the in vitro uptake experiments, 6 × 10^5 MCF7, 4.5 × 10^5 ZL34 and 2 × 10^5 AB22 were seeded in 6 cm of diameter dishes. After 24 h for MCF7 and ZL34 and after 72 h for AB22, the cells were incubated for 24 h with increasing concentration of CA-SF. All the incubations were performed in condition of normoxia at 37 °C, 5% CO2. At the end of the incubation, cells were washed three times with 3 ml ice-cold PBS and detached with 0.05% trypsin and 0.02% EDTA. Finally, all cell samples were transferred in falcon tubes and sonicated at 30% of power for 30 s in ice. The boron content of each cell sample lysates was determined by ICP-MS technique (see below). The milligrams of proteins, proportional to the number of cells, of each cell sample lysate, was evaluated by the Bradford assay (Biorad) using bovine serum albumin as a standard.
Boron content from cell samples, mice organs, plasma and tumours were determined using inductively coupled plasma mass spectrometry (ICP-MS) (Element-2; Thermo-Finnigan, Rodano (MI), Italy).
Sample digestion was performed using a high performance Microwave Digestion System (ETHOS UP Milestone, Bergamo, Italy) after the addition of concentrated HNO3 (70%) to cell lysates (1:1), in a final volume of 0.4 mL. […] The amounts of boron µg /g tissue were thus calculated considering that 1 g of tissue contains 1 × 10^9 cells.

MCF7 cells [5] = experiment: BNCT in vitro: viable cells 24 h after neutron irradiation (trypan blue); type: cell-based, human; settings: MCF7, 72 µM 24 h, thermal neutrons 15 min 30 kW, 24 h after irradiation
Procedure: (§2) 75 flasks of MCF7 (4 flasks), ZL34 (4 flasks) and AB22 (4 flasks) were seeded at a density of 1.8 × 10^6 cells, 1.2 × 10^6 cells and 5.5 × 10^5 cells, respectively. 24 h later for MCF7 and ZL34 and 72 h later for AB22, 2 flasks of each cell lines were incubated for 24 h in the presence of 72 µM, 187.5 µM and 130 µM of CA-SF, respectively. After the incubation, cells were washed with PBS and their medium was renewed. Two flasks of MCF7, ZL34 and AB22 cells incubated with CA-SF and two flasks containing non-treated control cells were irradiated for 15′ at 30 kW reactor power in the thermal column of the TRIGA Mark II reactor at the University of Pavia, Italy. At the end of the irradiation, the medium was removed, it was replaced with fresh medium and flasks were placed at 37 °C in a humidified atmosphere of 5% CO2.
(§3) The proliferation assay was carried out following the same procedure reported in reference 32. The day after irradiation cells were detached with 0.05% trypsin and 0.02% EDTA and the trypan blue exclusion test of cell viability was performed. Cell viability was reported as percentage of cells observed in treated a/o irradiated samples relative to that observed in control cells.

ZL34 cells [6] = experiment: as above; type: cell-based, human; settings: ZL34, 187.5 µM 24 h, thermal neutrons 15 min 30 kW, 24 h after irradiation
Procedure: as §2, §3

AB22 cells [7] = experiment: as above; type: cell-based, mouse; settings: AB22, 130 µM 24 h, thermal neutrons 15 min 30 kW, 24 h after irradiation
Procedure: as §2, §3

MCF7 cells [8] = experiment: Proliferation assay of cells surviving irradiation; type: cell-based, human; settings: MCF7, 72 µM CA-SF before neutron irradiation
Procedure: as §2, with “At the end of the irradiation, the medium was removed, it was replaced with fresh medium and flasks were placed at 37 °C in a humidified atmosphere of 5% CO2.” left out
(§4) Then, around 7 × 10^5 MCF7, 3.5 × 10^5 ZL34 and 1 × 10^5 AB22 cells from each differently treated flask were seeded in 10 cm diameter culture dishes. […] Then, cells were sonicated for 30 s at 30% power in ice and the total cell protein concentration (that is proportional to the number of cells) from cell lysates was determined by the Bradford method, using bovine serum albumin as a standard. The Cell Growth Rate was calculated as follows: Number of cellsti-Number of cellst0/Number of cellst0×100 for which Number of cells (ti) is the number of cells measured at the various time intervals and the number of cells (t0) is the number of cells at the starting point (t = 0) of the proliferation assay.

ZL34 cells [9] = experiment: Proliferation assay of cells surviving irradiation; type: cell-based, human; settings: ZL34, 187.5 µM CA-SF before neutron irradiation
Procedure: as §2, with “At the end of the irradiation, the medium was removed, it was replaced with fresh medium and flasks were placed at 37 °C in a humidified atmosphere of 5% CO2.” left out
as §4

AB22 cells [10] = experiment: Proliferation assay of cells surviving irradiation; type: cell-based, mouse; settings: AB22, 130 µM CA-SF before neutron irradiation
Procedure: as §2, with “At the end of the irradiation, the medium was removed, it was replaced with fresh medium and flasks were placed at 37 °C in a humidified atmosphere of 5% CO2.” left out
as §4

- boron loaded into the target cells (AB22 cells [4]): 160 µg/g
Substance: 1-Sulfonamidomethyl-o-carborane [CA-SF]
- cell vitality measured by MTT (MCF7 cells [1]; MCF7, 72 µM CA-SF, 24 h, 37 °C): about 80%
- percentage of viable cells with increasing concentration (MTT) (MCF7 cells [1]; MCF7, 24 h, Fig. 3): steadily decreases
- cell vitality measured by MTT (ZL34 cells [2]; ZL34, 187.5 µM CA-SF, 24 h, 37 °C): about 80%
- percentage of viable cells with increasing concentration (MTT) (ZL34 cells [2]; ZL34, 24 h, Fig. 3): steadily decreases
- cell vitality measured by MTT (AB22 cells [3]; AB22, 130 µM CA-SF, 24 h, 37 °C): about 80%
- percentage of viable cells with increasing concentration (MTT) (AB22 cells [3]; AB22, 24 h, Fig. 3): steadily decreases
- viability of CA-SF treated and irradiated cells vs CA-SF treated cells (MCF7 cells [5]): significantly reduced
- viability of CA-SF treated and irradiated cells vs CA-SF treated cells (ZL34 cells [6]): comparable
- viability of CA-SF treated and irradiated cells vs CA-SF treated cells (AB22 cells [7]): significantly reduced
- proliferation rate of cells surviving to irradiation (MCF7 cells [8]): marked inhibition of proliferation
- proliferation rate of cells surviving to irradiation (ZL34 cells [9]): marked inhibition of proliferation
- proliferation rate of cells surviving to irradiation (AB22 cells [10]): marked inhibition of proliferation
